Source: publication PMC9982066, “Inhibition of Ehrlichia chaffeensis infection by cell-permeable macrocyclic peptides that bind type IV secretion effector Etf-1” (PNAS Nexus, 2023)
Starred links: 1 amine or outer side, 2 acyl side, 3 side chain; linkers in the order of their positions; H or OH if unused. Positions of bridges follow the written chain, without caps; N, C: chain ends. Non-standard residues stand in square brackets, D forms with d. Residues, ends and D or L forms follow the SMILES beside them. Trimesoyl = O=C(c1cc(C(=O)[*:2])cc(C(=O)[*:3])c1)[*:1]; Phe(3-Cl) = N[C@@H](Cc1cccc(Cl)c1)C(=O)O; Phe(4-Cl) = N[C@@H](Cc1ccc(Cl)cc1)C(=O)O; Phe(4-F) = N[C@@H](Cc1ccc(F)cc1)C(=O)O; d2Nal = N[C@H](Cc1ccc2ccccc2c1)C(=O)O; βAsp = O=C(O)[C@H](CC(=O)[*:2])N[*:1]; Nle = CCCC[C@H](N)C(=O)O; Orn = NCCC[C@H](N)C(=O)O; Dap = NC[C@H](N)C(=O)O

Key:
[1] = target: Etf-1 (Ehrlichia chaffeensis, UniProt Q2GG12); assay: FP assay of Etf-1 binding with FAM-labeled peptides
Sequence of Etf-1 (Q2GG12 entry or part of it): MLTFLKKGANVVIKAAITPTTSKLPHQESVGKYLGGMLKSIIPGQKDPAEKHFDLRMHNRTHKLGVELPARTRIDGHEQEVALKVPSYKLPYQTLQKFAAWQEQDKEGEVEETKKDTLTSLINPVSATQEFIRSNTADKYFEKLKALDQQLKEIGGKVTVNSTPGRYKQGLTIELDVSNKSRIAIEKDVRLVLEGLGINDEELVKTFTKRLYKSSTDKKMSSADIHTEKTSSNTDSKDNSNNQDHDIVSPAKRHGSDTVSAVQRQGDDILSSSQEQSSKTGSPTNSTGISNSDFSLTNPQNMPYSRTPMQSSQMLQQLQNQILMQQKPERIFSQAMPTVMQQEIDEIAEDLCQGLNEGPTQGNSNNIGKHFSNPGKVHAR
Experimental: The peptides were labeled at their C-terminus with carboxyfluorescein (FAM) through a β-Ala-β-Ala-Lys linker and evaluated for binding to Etf-1 by using a fluorescence polarization (FP) assay. […] This outcome is not unexpected, as screening OBOC libraries is often complicated by false positives, due to the presence of high ligand densities on library beads ([28]).
Fig. 2. Determination of binding affinity of Etf-1-binding peptides by FP assay. […] FAM-labeled peptide (50 nM) was incubated with serially diluted Etf-1 (starting from 25–30 μM in PBS, pH 7.4, supplemented with 5 mM DTT and 0.01% Triton X-100) for 1 h at RT. FP values were measured on a Tecan Infinite M1000 Pro plate reader. Titration curves (n ≥ 3) were fitted using GraphPad Prism and analyzed with TraceDrawer to calculate dissociation constants (KD). […] Data were analyzed using GraphPad Prism and fitted to a four-parameter variable slope equation to determine IC50 values.
Etf-1 and macrocyclic peptides were serially diluted in PBS supplemented with 5 mM DTT and 0.01% Triton X-100 (v/v). FAM-labeled peptides (50 nM) were prepared from a 10-μM DMSO stock and incubated with serially diluted Etf-1 for 1 h at room temperature (RT). Twenty microliters of the solutions were transferred to a black 384-well plate (Greiner Bio-One) and FP values were measured on a Tecan Infinite M1000 Pro plate reader with excitation and emission wavelengths at 470 and 535 nm, respectively. Titration curves (n ≥ 3) were fitted using GraphPad Prism v8.0 (GraphPad, La Jolla, CA, USA), and analyzed with TraceDrawer software v1.8 (Ridgeview Instruments AB, Uppsala, Sweden) to calculate the dissociation constant (KD, in nM).

[2] = test system: E. chaffeensis; assay: E. chaffeensis infection of THP-1 cells, qPCR of 16S rRNA gene normalized to human actin; type: cell-based, Ehrlichia chaffeensis
Experimental: Therefore, we investigated whether these Etf-1-binding peptides can prevent the proliferation of E. chaffeensis inside host cells. THP-1 cells were infected with E. chaffeensis, then treated with the peptides at 30 min post infection (pi) for 2 days. Intracellular infection and proliferation of E. chaffeensis inside host THP-1 cells were assessed using quantitative PCR (qPCR) analysis based on E. chaffeensis 16S rRNA gene normalized by human actin (ACT) gene.
Fig. 5. Effects of Etf-1-binding peptides on E. chaffeensis infection of THP-1 cells. Ehrlichia chaffeensis-infected THP-1 cells at […] were incubated with 10 μM of Etf-1-binding macrocyclic peptide or DMSO control for 2 days.
No antibiotic was used throughout the study.
DNA was extracted from each sample using Qiagen blood mini kit according to the manufacturer's instructions (Qiagen, Valencia, CA, USA), and qPCR analysis was performed in an MX3000P qPCR instrument (Stratagene, San Diego, CA, USA) using SYBR Green Real-Time PCR Master Mix (Thermo Fisher Scientific) according to the manufacturer's instructions. Five-fold serial dilutions of the control group were used to generate a standard curve to calculate the relative copy numbers of E. chaffeensis 16S rRNA normalized against human actin genes using the MX3000P software from Stratagene as described previously ([18], [44]).

[3] = test system: E. chaffeensis; assay: morphological examination of E. chaffeensis infection of THP-1 cells by Diff-Quik staining; details: THP-1 cells, Fig. S4 (with Figs. 5, S3)
Experimental: Ehrlichia chaffeensis Arkansas strain ([43]) was cultured in THP-1 cells (ATCC, Manassas, VA, USA) in RPMI 1640 medium (Corning, Manassas, VA, USA) supplemented with 8% FBS (Atlanta Biologicals, Flowery Branch, GA, USA) and 4 mM L-glutamine (at 37°C under 5% CO2 in a humidified atmosphere. THP-1 cells were seeded at 1 × 10^5 cells/well (in 1.5-mL RPMI 1640 culture medium with 8% FBS, 4 mM L-Gln) in a 12-well plate, then infected with host cell-free E. chaffeensis at an MOI (multiplicity of infection, or numbers of bacteria per cell) of ∼30. Cells were cultured in a humidified incubator with 5% CO2 and 95% air. No antibiotic was used throughout the study. At 0.5 h post infection (pi), cells were incubated with 1–10 μM of peptides or with an equal volume of DMSO (solvent control, 2 μL per mL medium). At 2 days pi, cells were washed with 1 mL of PBS, and two drops of cells were cytospun onto glass slides by a Shandon Cytospin 4 cytocentrifuge (Thermo Fisher Scientific), then fixed and stained with HEMA 3 staining solutions (Thermo Fisher Scientific). Ehrlichia infection was observed and images were captured by a SPOT RT digital camera (Diagnostic Instruments, Sterling Heights, MI, USA) coupled to a Nikon Eclipse E400 microscope (Nikon, Melville, NY, USA).

| SMILES | Kd [1] [µM] | further results |
| --- | --- | --- |
| CC(C)C[C@H]1NC(=O)[C@H](CO)NC(=O)[C@H]2CCCN2C(=O)[C@H](CCC(N)=O)NC(=O)[C@H](Cc2c[nH]cn2)NC(=O)[C@H](Cc2ccc(O)cc2)NC(=O)c2cc3cc(c2)C(=O)NC[C@H](NC1=O)C(=O)N[C@@H](Cc1ccccc1)C(=O)N[C@H](Cc1ccc2ccccc2c1)C(=O)N[C@H](C)C(=O)N[C@@H](CCCNC(=N)N)C(=O)N[C@H](CCCNC(=N)N)C(=O)N[C@@H](CCCNC(=N)N)C(=O)N[C@H](C(N)=O)CNC3=O [Peptide B7-9, TMA-Tyr-His-Gln-pro-Ser-leu-Dap-Phe-nal-ala-Arg-arg-Arg-Dap] (YHQ[dP]S[dL][Dap]F[d2Nal][dA]R[dR]R[Dap]-NH2; linker N-7-14 via Trimesoyl) | 30 ± 7 | – |
| CC(C)C[C@H]1NC(=O)[C@H](Cc2ccc(F)cc2)NC(=O)[C@@H](CCC(=O)O)NC(=O)C[C@@H](C(=O)O)NC(=O)[C@H](CCCN)NC(=O)[C@H](CC(=O)O)NC(=O)[C@H](Cc2ccc(O)cc2)NC(=O)c2cc3cc(c2)C(=O)NC[C@H](NC1=O)C(=O)N[C@@H](Cc1ccc(Cl)cc1)C(=O)N[C@H](Cc1ccc2ccccc2c1)C(=O)N[C@H](CCCNC(=N)N)C(=O)N[C@@H](CCCNC(=N)N)C(=O)N[C@H](CCCNC(=N)N)C(=O)N[C@@H](CCCNC(=N)N)C(=O)N[C@H](C(N)=O)CNC3=O [Peptide B7-95-1, TMA-Tyr-Asp-Orn-isoAsp-glu-Fpa-leu-Dap-4-ClPhe-nal-arg-Arg-arg-Arg-Dap] (YD[Orn][βAsp][dE][Phe(4-F)][dL][Dap][Phe(4-Cl)][d2Nal][dR]R[dR]R[Dap]-NH2; linker N-8-15 via Trimesoyl) | 3.2 | – |
| CCCC[C@@H]1NC(=O)[C@H](CC(=O)O)NC(=O)[C@@H](Cc2ccccc2)NC(=O)[C@H](Cc2ccc(O)cc2)NC(=O)c2cc3cc(c2)C(=O)NC[C@H](NC(=O)[C@@H](CC(C)C)NC(=O)[C@@H](CC(N)=O)NC1=O)C(=O)N[C@@H](Cc1ccc(Cl)cc1)C(=O)N[C@H](Cc1ccc2ccccc2c1)C(=O)N[C@H](CCCNC(=N)N)C(=O)N[C@@H](CCCNC(=N)N)C(=O)N[C@H](CCCNC(=N)N)C(=O)N[C@@H](CCCNC(=N)N)C(=O)N[C@H](C(N)=O)CNC3=O [Peptide B7-133-3, TMA-Tyr-phe-Asp-Nle-asn-leu-Dap-4-ClPhe-nal-arg-Arg-arg-Arg-Dap] (Y[dF]D[Nle][dN][dL][Dap][Phe(4-Cl)][d2Nal][dR]R[dR]R[Dap]-NH2; linker N-7-14 via Trimesoyl) | – | inhibition of E. chaffeensis infection ([2]; 10 μM, 2 days, vs DMSO control): significantly inhibited; dose dependence of inhibition of E. chaffeensis infection ([2]; 1, 5, and 10 μM): dose-dependent manner; inhibition of E. chaffeensis infection compared with peptide B7 (or B7-16) ([2]; THP-1 cells): significantly more potent inhibition; E. chaffeensis infection (numbers and sizes of morulae) [3]: significantly inhibited |
| CC(C)C[C@H]1NC(=O)[C@H](CO)NC(=O)[C@H]2CCCN2C(=O)[C@H](CCC(N)=O)NC(=O)[C@H](Cc2c[nH]cn2)NC(=O)[C@H](Cc2ccc(O)cc2)NC(=O)c2cc3cc(c2)C(=O)NC[C@H](NC1=O)C(=O)N[C@@H](Cc1cccc(Cl)c1)C(=O)N[C@H](Cc1ccc2ccccc2c1)C(=O)N[C@H](CCCNC(=N)N)C(=O)N[C@@H](CCCNC(=N)N)C(=O)N[C@H](CCCNC(=N)N)C(=O)N[C@@H](CCCNC(=N)N)C(=O)N[C@H](C(N)=O)CNC3=O [Peptide B7-17, TMA-Tyr-His-Gln-pro-Ser-leu-Dap-3-ClPhe-nal-arg-Arg-arg-Arg-Dap] (YHQ[dP]S[dL][Dap][Phe(3-Cl)][d2Nal][dR]R[dR]R[Dap]-NH2; linker N-7-14 via Trimesoyl) | 3.4 ± 0.4 | – |
| CC(C)C[C@H]1NC(=O)[C@H](CO)NC(=O)[C@@H](C)NC(=O)[C@H](CCC(N)=O)NC(=O)[C@H](Cc2c[nH]cn2)NC(=O)[C@H](Cc2ccc(O)cc2)NC(=O)c2cc3cc(c2)C(=O)NC[C@H](NC1=O)C(=O)N[C@@H](Cc1ccccc1)C(=O)N[C@H](Cc1ccc2ccccc2c1)C(=O)N[C@H](CCCNC(=N)N)C(=O)N[C@@H](CCCNC(=N)N)C(=O)N[C@H](CCCNC(=N)N)C(=O)N[C@@H](CCCNC(=N)N)C(=O)N[C@H](C(N)=O)CNC3=O [Peptide B7-3, TMA-Tyr-His-Gln-ala-Ser-leu-Dap-Phe-nal-arg-Arg-arg-Arg-Dap] (YHQ[dA]S[dL][Dap]F[d2Nal][dR]R[dR]R[Dap]-NH2; linker N-7-14 via Trimesoyl) | 5.8 ± 0.5 | – |
| CC(C)C[C@H]1NC(=O)[C@H](CO)NC(=O)[C@H]2CCCN2C(=O)[C@H](CCC(N)=O)NC(=O)[C@H](Cc2c[nH]cn2)NC(=O)[C@H](Cc2ccc(O)cc2)NC(=O)c2cc3cc(c2)C(=O)NC[C@H](NC1=O)C(=O)N[C@@H](Cc1ccccc1)C(=O)N[C@H](Cc1ccc2ccccc2c1)C(=O)N[C@H](CCCNC(=N)N)C(=O)N[C@@H](C)C(=O)N[C@H](CCCNC(=N)N)C(=O)N[C@@H](CCCNC(=N)N)C(=O)N[C@H](C(N)=O)CNC3=O [Peptide B7-10, TMA-Tyr-His-Gln-pro-Ser-leu-Dap-Phe-nal-arg-Ala-arg-Arg-Dap] (YHQ[dP]S[dL][Dap]F[d2Nal][dR]A[dR]R[Dap]-NH2; linker N-7-14 via Trimesoyl) | 30 ± 3 | – |
| CCCC[C@@H]1NC(=O)[C@H](Cc2ccc(O)cc2)NC(=O)c2cc3cc(c2)C(=O)NC[C@H](NC(=O)[C@@H](CC(C)C)NC(=O)CNC(=O)[C@H](CCC(N)=O)NC(=O)[C@@H](CCC(=O)O)NC1=O)C(=O)N[C@@H](Cc1ccc(Cl)cc1)C(=O)N[C@H](Cc1ccc2ccccc2c1)C(=O)N[C@H](CCCNC(=N)N)C(=O)N[C@@H](CCCNC(=N)N)C(=O)N[C@H](CCCNC(=N)N)C(=O)N[C@@H](CCCNC(=N)N)C(=O)N[C@H](C(N)=O)CNC3=O [Peptide B7-133-4, TMA-Tyr-Nle-glu-Gln-Gly-leu-Dap-4-ClPhe-nal-arg-Arg-arg-Arg-Dap] (Y[Nle][dE]QG[dL][Dap][Phe(4-Cl)][d2Nal][dR]R[dR]R[Dap]-NH2; linker N-7-14 via Trimesoyl) | 6.5 ± 0.1 | – |
